This experiment in a line: Scavenging activity against DPPH. The format is functional. A general note: The DPPH test is a chemical assay of radical scavenging.

Experimental findings from ChEMBL document CHEMBL1136329, “A theoretical investigation on DPPH radical-scavenging mechanism of edaravone” (Bioorg Med Chem Lett, 2003) are described below.

SMILES strings stand for the structures.

Molecule `CC1=NN(c2ccccc2)C(=O)C1` [EDARAVONE] registered an IC50 of 29.3 uM l-1.
